According to article PMC10489750, “Exploration of Baicalein-Core Derivatives as Potent Antifungal Agents: SAR and Mechanism Insights” (Molecules, 2023):

Molecular target: T1, Eno1 (Candida albicans, UniProt P30575)
T1 sequence (P30575 1-440): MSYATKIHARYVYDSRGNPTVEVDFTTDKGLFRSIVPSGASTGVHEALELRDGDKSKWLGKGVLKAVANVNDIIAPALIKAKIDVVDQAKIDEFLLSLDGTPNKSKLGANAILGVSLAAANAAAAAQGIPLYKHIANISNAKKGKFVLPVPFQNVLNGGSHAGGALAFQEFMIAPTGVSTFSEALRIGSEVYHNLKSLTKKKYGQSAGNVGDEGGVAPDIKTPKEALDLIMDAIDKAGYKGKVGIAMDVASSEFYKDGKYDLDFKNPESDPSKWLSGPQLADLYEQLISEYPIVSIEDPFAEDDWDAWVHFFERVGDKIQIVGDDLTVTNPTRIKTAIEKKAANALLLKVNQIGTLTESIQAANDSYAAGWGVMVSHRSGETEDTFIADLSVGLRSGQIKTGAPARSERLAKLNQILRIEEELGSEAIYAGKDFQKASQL
Assay: in vitro enolase assay, […] compound, absorbance at […] nm, […] Eno1
Assay type: biochemical

**Q.** With `Nc1ccc(-c2cc(=O)c3c(O)c(O)c(O)cc3o2)cc1` [B5, 2-(4-aminophenyl)-5,6,7-trihydroxy-4H-chromen-4-one] as the molecule, how does the “in vitro enolase assay, 200 μM compound, absorbance at 240 nm, 30 nM Eno1” value read?
**A.** B5 exhibited some inhibitory ability in in vitro enzyme inhibition assay, although it was weaker than BE
